Data from US11780832B2, “Lactivicin compounds, their preparation and use as antibacterial agents” (priority 2021, dated 2023).
Values after ≈ are worked out from the molar mass of the structure shown. Like-named read-outs stand apart in the source and are kept apart here.

Assays:
Test in all cases: MIC, CLSI broth microdilution
Assay type in all cases: cell-based
[1] = tested on: Escherichia coli pSMART_Cfreundii_AmpC
Procedure: (§1) Gram-negative and Gram-positive bacterial strains used during the in vitro minimum inhibitory concentration (MIC) determination were obtained either from the American Type Culture Collection (ATCC) or from clinical specimens. All strains were characterized genotypically and the respective antibiotic resistance markers for each strain were identified.
(§2) Isolates were sub-cultured onto appropriate media and stocked in skim milk at −80° C. Following two subcultures from frozen stock, in vitro antimicrobial susceptibility testing was performed using the Clinical and Laboratory Standards Institute (CLSI) broth microdilution method. Briefly, fresh cultures were suspended in culture media to give a final stock inoculum size of 5×10^7 colony forming units per milliliter of broth (CFU/mL). […] 100 μL of the stock solutions were added to the first wells in a 96-well plate and were then diluted using a 2-fold dilution method to give a range of 32-0.025 μg/mL. 100 μL of the bacterial suspensions were then added to the 96-well plates to give a final working inoculum size of 5×10^5 CFU/mL. The final compound concentration range was 16-0.0125 μg/mL. […] MICs for comparator agents were determined using custom-designed, in-house prepared 96-well broth microdilution panels.

[2] = tested on: Serratia marcescens SME-2; conditions: SME2
Procedure: as §1, §2

[3] = tested on: Klebsiella pneumoniae KPC-2; conditions: KPC2
Procedure: as §1, §2

[4] = tested on: Klebsiella pneumoniae OXA-163, OXA-1_OXA-30, SHV-1, TEM-1
Procedure: as §1, §2

[5] = tested on: Klebsiella pneumoniae KPC-3
Procedure: as §1, §2

Escherichia coli CMY-2 = conditions: CMY2
Procedure: as §1, §2

Escherichia coli SHV-12 = conditions: SHV12
Procedure: as §1, §2

[6] = tested on: Escherichia coli pSMART_Ecloacae_AmpC
Procedure: as §1, §2

[7] = tested on: Pseudomonas aeruginosa AmpC overexpressed
Procedure: as §1, §2

[8] = tested on: Citrobacter freundii species complex OXA-181
Procedure: as §1, §2

[9] = tested on: Pseudomonas aeruginosa ATCC 27853; conditions: ATCC27853
Procedure: as §1, §2

[10] = tested on: Escherichia coli ATCC 25922; conditions: ATCC25922
Procedure: as §1, §2

[11] = tested on: Klebsiella pneumoniae OXA-48, SHV-1
Procedure: as §1, §2

[12] = tested on: Klebsiella oxytoca KPC-2, TEM-1
Procedure: as §1, §2

[13] = tested on: Klebsiella aerogenes VIM-1, SHV-12
Procedure: as §1, §2

[14] = tested on: Enterobacter cloacae species complex NDM-1
Procedure: as §1, §2

[15] = tested on: Klebsiella pneumoniae SHV-12
Procedure: as §1, §2

[16] = tested on: Escherichia coli Isogenic TEM-26
Procedure: as §1, §2

[17] = tested on: Escherichia coli CTX-M-15; conditions: CTXM15
Procedure: as §1, §2

[18] = tested on: Escherichia coli Isogenic TEM-10
Procedure: as §1, §2

[19] = tested on: Acinetobacter baumannii ATCC 19606; conditions: ATCC19606
Procedure: as §1, §2

[20] = tested on: Serratia marcescens AmpC overexpressed
Procedure: as §1, §2

[21] = tested on: Escherichia coli Empty pSMART plasmid
Procedure: as §1, §2

[22] = tested on: Pseudomonas aeruginosa OprD negative
Procedure: as §1, §2

SMILES	MIC [1] [µg/mL]	MIC [2] [µg/mL]	MIC [3] [µg/mL]	MIC [4] [µg/mL]	MIC (Escherichia coli CMY-2) [µg/mL]	MIC (Escherichia coli SHV-12) [µg/mL]	MIC [6] [µg/mL]	MIC [7] [µg/mL]	MIC [9] [µg/mL]	MIC [10] [µg/mL]	MIC [11] [µg/mL]	MIC [13] [µg/mL]	MIC [14] [µg/mL]	MIC [16] [µg/mL]	MIC [17] [µg/mL]	MIC [18] [µg/mL]	MIC [19] [µg/mL]	MIC [20] [µg/mL]	MIC [21] [µg/mL]	MIC [22] [µg/mL]	also measured
CC(C)(O/N=C(\C(=O)N[C@H]1CON(C2(C(=O)O)C[C@H](N3C(=O)c4cc(O)c(O)nc4C3=O)C(=O)O2)C1=O)c1csc(N)n1)C(=O)O (stereo partly drawn) [Cmpd 36, (4S)-2-[(4S)-4-{[(2Z)-2-(2-amino-1,3-thiazol-4-yl)-2-{[(2-carboxypropan-2-yl)oxy]imino}acetyl]amino}-3-oxo-1,2-oxazolidin-2-yl]-4-(2,3-dihydroxy-5,7-dioxo-5,7-dihydro-6H-pyrrolo[3,4-b]pyridin-6-yl)-5-oxooxolane-2-carboxylic acid]	0.06 (≈ 0.0904 µM)	0.06 (≈ 0.0904 µM)	0.12 (≈ 0.181 µM)	0.06 (≈ 0.0904 µM)	1 (≈ 1.51 µM)	1 (≈ 1.51 µM)	0.03 (≈ 0.0452 µM)	0.5 (≈ 0.754 µM)	0.12 (≈ 0.181 µM)	0.06 (≈ 0.0904 µM)	0.0149 (≈ 0.0225 µM)	2 (≈ 3.01 µM)	0.25 (≈ 0.377 µM)	0.0149 (≈ 0.0225 µM)	2 (≈ 3.01 µM)	0.0149 (≈ 0.0225 µM)	0.12 (≈ 0.181 µM)	0.06 (≈ 0.0904 µM)	0.06 (≈ 0.0904 µM)	0.12 (≈ 0.181 µM)	MIC ([5]; KPC3): 0.0149 µg/mL (≈ 0.0225 µM); MIC ([8]; Citrobacter freundii): 0.0149 µg/mL (≈ 0.0225 µM); MIC [12]: 0.0149 µg/mL (≈ 0.0225 µM); MIC ([15]; SHV12): 0.0149 µg/mL (≈ 0.0225 µM)
CC(C)(O/N=C(\C(=O)N[C@H]1CON(C2(C(=O)O)C[C@@H](N3C(=O)c4cc(O)c(O)cc4C3=O)C(=O)O2)C1=O)c1csc(N)n1)C(=O)O (stereo partly drawn) [Cmpd 40, (4R)-2-[(4S)-4-{[(2Z)-2-(2-amino-1,3-thiazol-4-yl)-2-{[(2-carboxypropan-2-yl)oxy]imino}acetyl]amino}-3-oxo-1,2-oxazolidin-2-yl]-4-(5,6-dihydroxy-1,3-dioxo-1,3-dihydro-2H-isoindol-2-yl)-5-oxooxolane-2-carboxylic acid]	0.12 (≈ 0.181 µM)	0.06 (≈ 0.0906 µM)	≤ 0.015	0.06 (≈ 0.0906 µM)	2 (≈ 3.02 µM)	1 (≈ 1.51 µM)	0.06 (≈ 0.0906 µM)	8 (≈ 12.1 µM)	0.12 (≈ 0.181 µM)	0.06 (≈ 0.0906 µM)	0.03 (≈ 0.0453 µM)	0.25 (≈ 0.377 µM)	2 (≈ 3.02 µM)	≤ 0.015	2 (≈ 3.02 µM)	0.03 (≈ 0.0453 µM)	0.12 (≈ 0.181 µM)	0.12 (≈ 0.181 µM)	≤ 0.015	0.12 (≈ 0.181 µM)	MIC ([5]; KPC3, KPC-3, read-out: MIC): 0.03 µg/mL (≈ 0.0453 µM); MIC ([8]; Citrobacter freundii species complex, OXA-181, read-out: MIC): 0.25 µg/mL (≈ 0.377 µM); MIC ([12]; KPC-2, TEM-1, read-out: MIC): ≤ 0.015 µg/mL; MIC ([15]; SHV12, SHV-12, read-out: MIC): ≤ 0.015 µg/mL
